Assay results reported in ChEMBL document CHEMBL1909046, “DrugMatrix in vitro pharmacology data”.

Columns and labels:
D(1A) dopamine receptor = D(1A) dopamine receptor (Homo sapiens, UniProt P21728); experiment: DRUGMATRIX: Dopamine D1 radioligand binding (ligand: [3H] SCH-23390); format: cell membranes, CHO, Membrane; conditions: cho; Not Active = under 50% inhibition at 10 µM
Glucocorticoid receptor = target: T1, Glucocorticoid receptor (Homo sapiens, UniProt P04150); experiment: biochemical; also: in other assays of this panel Not Active means under 50% inhibition at 10 µM
T1 sequence (P04150 whole entry): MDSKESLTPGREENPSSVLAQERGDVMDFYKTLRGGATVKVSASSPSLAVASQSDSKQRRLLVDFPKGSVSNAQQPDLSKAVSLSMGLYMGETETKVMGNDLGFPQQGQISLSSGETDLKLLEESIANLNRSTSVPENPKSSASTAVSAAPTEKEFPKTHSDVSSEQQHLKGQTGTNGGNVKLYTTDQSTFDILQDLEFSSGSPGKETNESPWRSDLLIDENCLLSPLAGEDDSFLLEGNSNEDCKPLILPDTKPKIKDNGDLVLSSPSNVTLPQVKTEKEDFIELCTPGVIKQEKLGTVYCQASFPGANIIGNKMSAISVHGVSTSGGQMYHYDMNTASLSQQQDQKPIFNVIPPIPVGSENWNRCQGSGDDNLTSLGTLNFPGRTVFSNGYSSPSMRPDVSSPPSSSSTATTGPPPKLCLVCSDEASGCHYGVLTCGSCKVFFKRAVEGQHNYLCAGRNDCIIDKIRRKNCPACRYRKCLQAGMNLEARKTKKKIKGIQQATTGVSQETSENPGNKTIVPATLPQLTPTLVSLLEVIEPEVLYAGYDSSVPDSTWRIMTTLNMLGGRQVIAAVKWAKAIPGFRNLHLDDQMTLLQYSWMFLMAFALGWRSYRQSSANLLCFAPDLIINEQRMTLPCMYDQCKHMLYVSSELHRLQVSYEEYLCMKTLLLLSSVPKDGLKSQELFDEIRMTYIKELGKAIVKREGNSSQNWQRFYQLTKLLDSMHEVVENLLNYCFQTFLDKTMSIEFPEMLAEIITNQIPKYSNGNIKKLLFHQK

[1] = target: Mitogen-activated protein kinase 3 (Homo sapiens, UniProt P27361); experiment: DRUGMATRIX: Protein Serine/Threonine Kinase, ERK1 enzyme inhibition (substrate: Myelin Basic Protein); design: species or system Escherichia coli; conditions: Not Active = under 50% inhibition at 10 µM
Chain of Mitogen-activated protein kinase 3 (P27361 whole entry): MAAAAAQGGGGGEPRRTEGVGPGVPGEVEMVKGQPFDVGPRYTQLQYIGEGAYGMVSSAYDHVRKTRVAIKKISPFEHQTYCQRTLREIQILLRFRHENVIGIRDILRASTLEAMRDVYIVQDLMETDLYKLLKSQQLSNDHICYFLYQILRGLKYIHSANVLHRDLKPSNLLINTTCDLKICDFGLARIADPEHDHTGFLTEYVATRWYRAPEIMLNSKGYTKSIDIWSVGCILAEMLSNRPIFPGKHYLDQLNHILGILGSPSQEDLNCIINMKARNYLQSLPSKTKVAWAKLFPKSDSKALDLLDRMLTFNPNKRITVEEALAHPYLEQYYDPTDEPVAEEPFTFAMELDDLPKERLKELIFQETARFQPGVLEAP

Cytochrome P450 2C9 = Cytochrome P450 2C9 (Homo sapiens, UniProt P11712); also: in other assays of this panel Not Active means under 50% inhibition at 10 µM
Chain of Cytochrome P450 2C9 (P11712 whole entry): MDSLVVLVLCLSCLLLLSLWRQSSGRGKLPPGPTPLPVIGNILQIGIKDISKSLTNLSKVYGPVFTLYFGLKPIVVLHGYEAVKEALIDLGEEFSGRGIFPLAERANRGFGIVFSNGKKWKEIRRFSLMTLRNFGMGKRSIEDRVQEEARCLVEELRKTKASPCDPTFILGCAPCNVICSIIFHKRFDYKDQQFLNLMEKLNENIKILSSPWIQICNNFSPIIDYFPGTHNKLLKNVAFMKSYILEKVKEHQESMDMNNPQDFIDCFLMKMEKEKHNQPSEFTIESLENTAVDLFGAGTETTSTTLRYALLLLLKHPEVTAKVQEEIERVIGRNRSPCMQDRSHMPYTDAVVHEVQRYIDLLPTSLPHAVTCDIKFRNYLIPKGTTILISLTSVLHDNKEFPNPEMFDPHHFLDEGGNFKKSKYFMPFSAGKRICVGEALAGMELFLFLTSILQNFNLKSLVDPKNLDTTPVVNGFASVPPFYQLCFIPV

Cytochrome P450 2C19 = Cytochrome P450 2C19 (Homo sapiens, UniProt P33261); also: in other assays of this panel Not Active means under 50% inhibition at 10 µM
Chain of Cytochrome P450 2C19 (P33261 whole entry): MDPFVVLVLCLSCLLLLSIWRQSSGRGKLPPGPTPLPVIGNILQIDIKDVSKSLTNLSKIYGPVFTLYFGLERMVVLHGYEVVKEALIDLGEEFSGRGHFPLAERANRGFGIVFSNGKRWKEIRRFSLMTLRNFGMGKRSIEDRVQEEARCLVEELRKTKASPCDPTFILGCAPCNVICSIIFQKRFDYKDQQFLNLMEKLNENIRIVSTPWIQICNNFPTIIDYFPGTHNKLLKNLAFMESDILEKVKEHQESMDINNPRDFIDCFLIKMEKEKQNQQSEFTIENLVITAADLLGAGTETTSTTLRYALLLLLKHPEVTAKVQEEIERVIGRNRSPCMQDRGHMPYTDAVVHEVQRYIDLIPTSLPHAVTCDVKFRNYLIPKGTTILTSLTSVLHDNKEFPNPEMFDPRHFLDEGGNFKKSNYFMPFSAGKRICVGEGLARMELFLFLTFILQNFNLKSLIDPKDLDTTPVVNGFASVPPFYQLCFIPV

Androgen receptor [2] = target: T2, Androgen receptor (Rattus norvegicus, UniProt P15207); also: in other assays of this panel Not Active means under 50% inhibition at 10 µM
T2 sequence (P15207 whole entry): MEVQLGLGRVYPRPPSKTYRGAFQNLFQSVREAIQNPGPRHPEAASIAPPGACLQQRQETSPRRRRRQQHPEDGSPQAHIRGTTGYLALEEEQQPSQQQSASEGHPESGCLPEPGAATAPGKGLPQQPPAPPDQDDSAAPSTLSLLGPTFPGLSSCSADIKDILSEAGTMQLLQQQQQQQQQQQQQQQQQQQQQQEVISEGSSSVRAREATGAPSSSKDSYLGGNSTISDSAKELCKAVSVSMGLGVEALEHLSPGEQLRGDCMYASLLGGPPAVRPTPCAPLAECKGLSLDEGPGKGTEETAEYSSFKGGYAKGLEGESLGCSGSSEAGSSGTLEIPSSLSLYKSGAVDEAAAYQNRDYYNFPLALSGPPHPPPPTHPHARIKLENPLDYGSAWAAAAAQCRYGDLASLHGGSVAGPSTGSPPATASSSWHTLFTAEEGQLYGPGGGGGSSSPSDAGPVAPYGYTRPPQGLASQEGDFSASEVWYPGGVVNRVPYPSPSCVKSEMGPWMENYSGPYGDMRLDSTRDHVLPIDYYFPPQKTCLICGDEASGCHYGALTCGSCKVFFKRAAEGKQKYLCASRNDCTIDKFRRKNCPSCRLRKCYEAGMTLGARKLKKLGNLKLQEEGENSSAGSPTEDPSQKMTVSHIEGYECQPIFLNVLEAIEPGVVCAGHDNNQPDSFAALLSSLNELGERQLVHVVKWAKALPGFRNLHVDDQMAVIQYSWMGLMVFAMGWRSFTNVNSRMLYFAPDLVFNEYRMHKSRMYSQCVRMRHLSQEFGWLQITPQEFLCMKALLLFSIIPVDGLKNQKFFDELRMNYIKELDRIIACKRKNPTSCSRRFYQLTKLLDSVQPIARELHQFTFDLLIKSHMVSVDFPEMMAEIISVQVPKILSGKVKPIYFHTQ

Cytochrome P450 2D6 = Cytochrome P450 2D6 (Homo sapiens, UniProt P10635); also: in other assays of this panel Not Active means under 50% inhibition at 10 µM
Chain of Cytochrome P450 2D6 (P10635 whole entry): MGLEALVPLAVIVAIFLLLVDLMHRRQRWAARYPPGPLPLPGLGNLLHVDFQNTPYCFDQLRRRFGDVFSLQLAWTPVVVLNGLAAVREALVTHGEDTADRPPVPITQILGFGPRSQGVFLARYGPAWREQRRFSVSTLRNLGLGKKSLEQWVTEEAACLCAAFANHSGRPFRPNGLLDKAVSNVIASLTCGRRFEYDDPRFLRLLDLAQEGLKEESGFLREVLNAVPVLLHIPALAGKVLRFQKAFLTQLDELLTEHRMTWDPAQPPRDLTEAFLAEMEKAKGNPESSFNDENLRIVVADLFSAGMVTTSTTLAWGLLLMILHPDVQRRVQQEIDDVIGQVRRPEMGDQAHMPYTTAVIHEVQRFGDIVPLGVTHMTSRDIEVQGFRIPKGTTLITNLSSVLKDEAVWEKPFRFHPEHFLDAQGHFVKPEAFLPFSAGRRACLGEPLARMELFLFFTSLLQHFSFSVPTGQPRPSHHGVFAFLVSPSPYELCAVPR

[3] = target: Voltage-gated inwardly rectifying potassium channel KCNH2 (Homo sapiens, UniProt Q12809); also: in other assays of this panel Not Active means under 50% inhibition at 10 µM
Chain of Voltage-gated inwardly rectifying potassium channel KCNH2 (Q12809 whole entry): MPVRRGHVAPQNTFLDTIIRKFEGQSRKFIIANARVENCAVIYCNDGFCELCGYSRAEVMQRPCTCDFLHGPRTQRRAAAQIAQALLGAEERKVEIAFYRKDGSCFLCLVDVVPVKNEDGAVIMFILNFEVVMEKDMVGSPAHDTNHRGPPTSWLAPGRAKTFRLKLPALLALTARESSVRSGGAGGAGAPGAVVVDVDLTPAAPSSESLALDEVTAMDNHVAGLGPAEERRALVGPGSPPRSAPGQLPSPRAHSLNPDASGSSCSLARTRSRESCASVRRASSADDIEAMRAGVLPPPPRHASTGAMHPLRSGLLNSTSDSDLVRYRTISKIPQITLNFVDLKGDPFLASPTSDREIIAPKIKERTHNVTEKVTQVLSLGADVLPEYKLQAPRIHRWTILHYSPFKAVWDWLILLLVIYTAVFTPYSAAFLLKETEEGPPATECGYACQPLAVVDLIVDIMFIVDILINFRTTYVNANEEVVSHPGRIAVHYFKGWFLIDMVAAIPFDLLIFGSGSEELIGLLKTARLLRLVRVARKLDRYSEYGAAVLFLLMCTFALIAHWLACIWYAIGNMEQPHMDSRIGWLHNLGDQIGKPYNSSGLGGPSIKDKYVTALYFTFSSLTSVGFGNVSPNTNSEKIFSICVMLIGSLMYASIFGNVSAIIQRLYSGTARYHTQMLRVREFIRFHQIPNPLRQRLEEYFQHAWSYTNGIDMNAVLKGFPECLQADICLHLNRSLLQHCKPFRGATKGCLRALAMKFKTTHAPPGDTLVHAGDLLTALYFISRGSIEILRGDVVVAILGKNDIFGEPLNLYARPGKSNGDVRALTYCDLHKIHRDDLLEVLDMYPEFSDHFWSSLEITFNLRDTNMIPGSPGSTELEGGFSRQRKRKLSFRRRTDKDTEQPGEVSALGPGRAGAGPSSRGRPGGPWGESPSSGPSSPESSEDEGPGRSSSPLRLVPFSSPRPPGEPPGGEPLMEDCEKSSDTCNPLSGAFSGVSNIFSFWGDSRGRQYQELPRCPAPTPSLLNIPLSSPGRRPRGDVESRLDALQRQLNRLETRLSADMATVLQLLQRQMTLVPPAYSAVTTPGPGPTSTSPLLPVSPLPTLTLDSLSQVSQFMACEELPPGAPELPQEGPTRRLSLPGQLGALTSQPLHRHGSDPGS

Cytochrome P450 1A2 = target: T3, Cytochrome P450 1A2 (Homo sapiens, UniProt P05177); also: in other assays of this panel Not Active means under 50% inhibition at 10 µM
T3 sequence (P05177 whole entry): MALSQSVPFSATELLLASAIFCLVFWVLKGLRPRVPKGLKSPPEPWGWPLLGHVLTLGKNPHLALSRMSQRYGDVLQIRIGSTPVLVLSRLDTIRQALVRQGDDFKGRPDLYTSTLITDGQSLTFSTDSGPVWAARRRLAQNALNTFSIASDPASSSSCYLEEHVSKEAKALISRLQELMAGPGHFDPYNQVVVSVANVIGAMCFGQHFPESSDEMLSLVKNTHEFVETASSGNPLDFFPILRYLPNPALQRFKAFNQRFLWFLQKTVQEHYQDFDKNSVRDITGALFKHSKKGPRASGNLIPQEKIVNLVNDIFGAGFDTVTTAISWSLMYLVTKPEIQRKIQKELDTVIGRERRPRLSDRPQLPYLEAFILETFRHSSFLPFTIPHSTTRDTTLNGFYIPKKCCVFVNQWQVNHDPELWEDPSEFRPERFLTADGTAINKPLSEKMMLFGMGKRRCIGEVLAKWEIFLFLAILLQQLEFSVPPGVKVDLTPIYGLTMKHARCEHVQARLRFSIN

Androgen receptor [4] = target: T2, Androgen receptor; remark: listed apart in the source

Chain of D(1A) dopamine receptor (P21728 whole entry): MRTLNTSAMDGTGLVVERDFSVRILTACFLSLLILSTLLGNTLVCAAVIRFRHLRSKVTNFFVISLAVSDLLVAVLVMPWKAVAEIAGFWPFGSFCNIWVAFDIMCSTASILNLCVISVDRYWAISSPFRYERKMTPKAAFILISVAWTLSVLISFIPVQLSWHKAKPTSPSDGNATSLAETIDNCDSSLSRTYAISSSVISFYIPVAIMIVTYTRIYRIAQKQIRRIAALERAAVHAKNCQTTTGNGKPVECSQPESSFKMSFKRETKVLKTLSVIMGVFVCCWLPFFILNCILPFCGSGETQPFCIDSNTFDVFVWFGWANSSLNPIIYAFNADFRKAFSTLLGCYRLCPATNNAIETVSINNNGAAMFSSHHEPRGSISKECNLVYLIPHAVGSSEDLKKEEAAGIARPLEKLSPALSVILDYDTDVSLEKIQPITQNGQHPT

Compound	IC50 (D(1A) dopamine receptor)	IC50 [1]	IC50 (Androgen receptor [2])	other results
CC(=O)[C@@]1(O)CC[C@H]2[C@@H]3CCC4=CC(=O)CC[C@]4(C)[C@H]3CC[C@@]21C [HYDROXYPROGESTERONE]	Not Active	–	–	IC50 (Glucocorticoid receptor): 51 nM; Ki (Glucocorticoid receptor): 23 nM; IC50 ([1]; read-out: IC50): 3160 nM
O=C(N/N=C/c1ccc([N+](=O)[O-])o1)c1cc([N+](=O)[O-])cc([N+](=O)[O-])c1O [NIFURSOL]	Not Active	Not Active	–	IC50 (Cytochrome P450 2C9): 7000 nM; IC50 (Cytochrome P450 2C19): 5000 nM
CC(=O)Oc1ccc(C(c2ccc(OC(C)=O)cc2)c2ccccn2)cc1 [BISACODYL]	Not Active	Not Active	Not Active	IC50 (Cytochrome P450 2C9): 10000 nM
COC1=C(OC)C(=O)C(CCCCCCCCCCO)=C(C)C1=O [IDEBENONE]	Not Active	Not Active	Not Active	IC50 (Cytochrome P450 2C9): 5000 nM; IC50 (Cytochrome P450 2D6): 3000 nM; IC50 (Cytochrome P450 2C19): 800 nM
CC(=O)[C@H]1[C@H](C#N)C[C@H]2[C@@H]3CC=C4C[C@@H](O)CC[C@]4(C)[C@H]3CC[C@@]21C [PREGNENOLONE CARBONITRILE]	Not Active	Not Active	–	IC50 (Glucocorticoid receptor): 14000 nM; Ki (Glucocorticoid receptor): 6340 nM
CCN(CC)CCOCCC1=CCC2CC1C2(C)C (stereo not drawn) [MYRTECAINE]	Not Active	Not Active	Not Active	IC50 [3]: 5900 nM; Ki [3]: 4840 nM
COc1ccc2cc3[n+](cc2c1OC)CCc1cc2c(cc1-3)OCO2.[Cl-] [BERBERINE CHLORIDE]	–	Not Active	–	IC50 (Cytochrome P450 2D6): 4500 nM
O=c1cc(N2CCOCC2)oc2c(-c3ccccc3)cccc12 [LY-294002]	Not Active	Not Active	Not Active	IC50 (Cytochrome P450 1A2): 1000 nM
OC(CCCN1CCCCC1)(c1ccccc1)c1ccccc1 [DIPHENIDOL]	Not Active	Not Active	Not Active	IC50 (Cytochrome P450 2D6): 326 nM
CCC(=O)O[C@]1(C(=O)CCl)[C@@H](C)C[C@H]2[C@@H]3CCC4=CC(=O)C=C[C@]4(C)[C@@]3(F)[C@@H](O)C[C@@]21C [CLOBETASOL PROPIONATE]	Not Active	Not Active	–	IC50 (Androgen receptor [4]): 3780 nM; Ki (Androgen receptor [4]): 2520 nM; IC50 (Glucocorticoid receptor): 1.46 nM; Ki (Glucocorticoid receptor): 0.662 nM
O=C(c1ccccc1C(F)(F)F)N1CCC(Cc2ccccc2)CC1	Not Active	Not Active	Not Active	IC50 (Cytochrome P450 2C9): 2000 nM; IC50 (Cytochrome P450 2C19): 400 nM
COc1cc2nc(N3CCN(C(=O)c4ccco4)CC3)nc(N)c2cc1OC [PRAZOSIN]	Not Active	Not Active	–	IC50 [3]: 24300 nM; Ki [3]: 19900 nM
Cc1c(OCC(F)(F)F)ccnc1C[S+]([O-])c1nc2ccccc2[nH]1 (stereo not drawn) [LANSOPRAZOLE]	Not Active	Not Active	–	IC50 (Cytochrome P450 2D6): 5310 nM; IC50 (Cytochrome P450 2C19): 337 nM
Cc1cc2c(OCC(CNC(C)(C)C)OC(=O)c3ccccc3)cccc2[nH]1 (stereo not drawn) [BOPINDOLOL]	Not Active	Not Active	–	IC50 (Cytochrome P450 2D6): 5480 nM
C#CC1(O)CC[C@H]2[C@@H]3CCC4=CC(=O)CC[C@@H]4[C@H]3CC[C@@]21CC (stereo partly drawn) [NORGESTREL]	Not Active	Not Active	–	IC50 (Glucocorticoid receptor): 149 nM; Ki (Glucocorticoid receptor): 68 nM
Oc1c(Cl)cc(Cl)c(Cl)c1Cc1c(O)c(Cl)cc(Cl)c1Cl [HEXACHLOROPHENE]	Not Active	–	–	IC50 (Androgen receptor [4]): 4980 nM; Ki (Androgen receptor [4]): 3320 nM; IC50 (Cytochrome P450 1A2): 1310 nM; IC50 ([1]; read-out: IC50): 2480 nM; IC50 (Cytochrome P450 2C19): 1230 nM
C[C@@H]1C[C@H]2[C@@H]3CCC4=CC(=O)C=C[C@]4(C)[C@@]3(F)[C@@H](O)C[C@]2(C)[C@H]1C(=O)CO [DESOXIMETASONE]	Not Active	Not Active	–	IC50 (Glucocorticoid receptor): 2.57 nM; Ki (Glucocorticoid receptor): 1.17 nM
